Experimental data as given in patent US20060052451A1, “Method” (priority 2002, published 2006).

Legend:
[1] = 21-day diet study, bodyweights of SD rats; type: in vivo, rat; details: 300 ppm in diet, 21 days
Experimental: This experiment investigated the effect of compounds of different % linearity on body weight over a longer study period.
The diet study consisted of one control group of 4 male animals and 4 test groups of 4 male animals (as specified earlier in this Example). Animals received powdered RM1 diet alone, or RM1 diet containing 300 ppm XEN1001 or XEN1002, ad libitum for the duration of the study. Bodyweights were measured daily for 21 days.

[2] = Plasma levels of PFOA after 11 days oral dosing in SD rats (LC/MS/MS); type: in vivo, rat; details: 25 mg/kg oral daily for 11 days, 24 hours after final administration
Experimental: The study consisted of one control group of 8 male CD Sprague Dawley rats (8-10-weeks old; obtained from Harlan, UK) and 4 test groups that contained 4 rats. Animals received powdered RM1 diet ad libitum for the duration of the study. […] All chemicals were dissolved in Mazola corn oil (at 2.5 mg/ml) and test compounds were administered at 10 ml/kg bodyweight. Control animal received Mazola corn oil only. All animals were sacrificed after 11 days. Animals were killed by exposure to rising concentrations of CO2, and blood was harvested into lithium/heparin tubes for plasma.
Rat plasma samples were denatured by adding acetonitrile, and the amount of perfluorooctanoic acid (PFOA) present was determined by LC/MS/MS.

PPAR alpha = molecular target: T1, PPAR alpha (Rattus norvegicus, UniProt P37230); test: PPAR alpha transactivation assay in COS-1 cells; type: cell-based; details: at 10 μM, mean±SD n=3
T1 construct: 25 ng of vector DNA carrying PPAR alpha, delta or gamma; expressed in transfected cells; host or cells: COS-1 (African green monkey kidney cells)
T1 sequence (P37230 1-468): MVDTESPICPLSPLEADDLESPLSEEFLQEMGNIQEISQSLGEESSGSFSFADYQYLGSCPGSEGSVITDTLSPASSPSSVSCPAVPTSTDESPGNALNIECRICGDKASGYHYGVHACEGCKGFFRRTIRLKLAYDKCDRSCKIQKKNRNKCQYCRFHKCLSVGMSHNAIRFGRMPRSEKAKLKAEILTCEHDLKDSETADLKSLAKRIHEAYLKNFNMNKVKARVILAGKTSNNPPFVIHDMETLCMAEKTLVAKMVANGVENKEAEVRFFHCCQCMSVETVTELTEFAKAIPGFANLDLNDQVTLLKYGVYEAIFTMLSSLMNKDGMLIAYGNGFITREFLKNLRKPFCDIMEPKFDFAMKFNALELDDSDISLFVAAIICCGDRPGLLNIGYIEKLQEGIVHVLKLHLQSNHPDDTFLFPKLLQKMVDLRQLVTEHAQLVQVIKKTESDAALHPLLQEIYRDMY

## N.O=C(O)C(F)(F)C(F)(F)C(F)(F)C(F)(F)C(F)(F)C(F)(F)C(F)(F)F [XEN1001, Ammoniumperfluorooctanoate]
[1]
  Lost bodyweight up to day: 7 days
[2]
  Plasma concentration of PFOA (free acid): equimolar concentrations of PFOA

## Cc1cccc(Nc2cc(Cl)nc(SCC(=O)O)n2)c1C [Wyeth14643]
PPAR alpha
  Fold activation of PPAR alpha, positive control: 8.88 ± 1.94 fold
